PubChem BioAssay AID292 (DTP/NCI, 2004)
“And” between values parts separate entries of the source, which are not always exact repeats. Equal values may be shown once. Toxic doses and inconclusive results are not listed.

Test system: B6C3F1 mice, ip Sarcoma M5076, median survival T/C
Test: NCI In Vivo Anticancer Drug Screen. Data for tumor model Sarcoma M5076 (intraperitoneal) in B6C3F1 mice
Conditions: endpoint: median survival time, higher = longer survival
Description: The antitumor activity of compounds was measured in mice bearing transplantable tumors. Survival or tumor size were measured and the results are expressed as the measurement made in the treated group (T) divided by the measurement made in the vehicle treated control group (C). The tumor model used in this assay is Sarcoma M5076 (intraperitoneal) in B6C3F1 mice

[1] = dose: 2.0 mg/kg/injection, schedule: Q04DX004 (ip), vehicle: water
[2] = dose: 50.0 mg/kg/injection, schedule: Q04DX004 (ip), vehicle: saline with Tween-80
[3] = dose: 100.0 mg/kg/injection, schedule: Q04DX004 (ip), vehicle: saline with Tween-80
[4] = dose: 50.0 mg/kg/injection, schedule: Q04DX004 (ip), vehicle: Klucel (hydroxypropylcellulose) (HPC)
[5] = dose: 100.0 mg/kg/injection, schedule: Q04DX004 (ip), vehicle: Klucel (hydroxypropylcellulose) (HPC)
[6] = dose: 200.0 mg/kg/injection, schedule: Q04DX004 (ip), vehicle: Klucel (hydroxypropylcellulose) (HPC)
[7] = dose: 400.0 mg/kg/injection, schedule: Q04DX004 (ip), vehicle: Klucel (hydroxypropylcellulose) (HPC)
[8] = dose: 12.5 mg/kg/injection, schedule: Q04DX004 (ip), vehicle: saline with Tween-80
[9] = dose: 25.0 mg/kg/injection, schedule: Q04DX004 (ip), vehicle: saline with Tween-80
[10] = dose: 50.0 mg/kg/injection, schedule: Q04DX004 (ip), vehicle: suspension in saline
[11] = dose: 100.0 mg/kg/injection, schedule: Q04DX004 (ip), vehicle: suspension in saline
[12] = dose: 200.0 mg/kg/injection, schedule: Q04DX004 (ip), vehicle: suspension in saline
[13] = dose: 25.0 mg/kg/injection, schedule: Q04DX004 (ip), vehicle: Klucel (hydroxypropylcellulose) (HPC)

SMILES: O=C1c2c(O)ccc(O)c2C(=O)c2c(NCCNCCO)ccc(NCCNCCO)c21
- T/C (dose: 0.25 mg/kg/injection, schedule: Q04DX005 (ip), vehicle: saline): 319 % of control
- T/C (dose: 0.5 mg/kg/injection, schedule: Q04DX004 (ip), vehicle: water): 161 % of control
- T/C (dose: 0.5 mg/kg/injection, schedule: Q04DX005 (ip), vehicle: saline): 319 % of control
- T/C (dose: 1.0 mg/kg/injection, schedule: Q04DX004 (ip), vehicle: water): 174 % of control
- T/C (dose: 1.0 mg/kg/injection, schedule: Q04DX005 (ip), vehicle: saline): 319 % of control
- T/C [1]: 224 % of control
- T/C (dose: 2.0 mg/kg/injection, schedule: Q04DX005 (ip), vehicle: saline): 298 % of control

SMILES: COCCCNC1=C(C#N)C(=O)NC2(CCCC2)S1
- T/C [2]: 97 % of control
- T/C [3]: 97 % of control
- T/C (dose: 200.0 mg/kg/injection, schedule: Q04DX004 (ip), vehicle: saline with Tween-80): 97 % of control
- T/C (dose: 400.0 mg/kg/injection, schedule: Q04DX004 (ip), vehicle: saline with Tween-80): 90 % of control

SMILES: CC(=O)C1C(=O)C(=O)N(c2ccccc2C)C1=O (centres undefined)
- T/C [4]: 104 % of control
- T/C [5]: 93 % of control
- T/C [6]: 102 % of control
- T/C [7]: 108 % of control

SMILES: c1ccc2c(c1)oc1cc3c(cc12)n1nnnc1c1cccn31
- T/C (dose: 3.12 mg/kg/injection, schedule: Q04DX004 (ip), vehicle: saline with Tween-80): 90 % of control
- T/C (dose: 6.25 mg/kg/injection, schedule: Q04DX004 (ip), vehicle: saline with Tween-80): 95 % of control
- T/C [8]: 90 % of control
- T/C [9]: 87 % of control

SMILES: c1ccc(P(CCNCCP(c2ccccc2)c2ccccc2)c2ccccc2)cc1
- T/C [9]: 88 % of control
- T/C [2]: 92 % of control
- T/C [3]: 90 % of control

SMILES: COc1cc(C2c3cc4c(cc3[C@@H](OC3OC5CO[C@@H](C)OC5C(O)C3O)[C@H]3COC(=O)C23)OCO4)cc(OC)c1OC (some centres undefined)
- T/C (dose: 25.0 mg/kg/injection, schedule: Q04DX004 (ip), vehicle: saline): 116 % of control
- T/C [4]: 118 % of control
- T/C (dose: 50.0 mg/kg/injection, schedule: Q04DX004 (ip), vehicle: saline): 110 % of control
- T/C [10]: 103 % of control
- T/C (dose: 100.0 mg/kg/injection, schedule: Q04DX004 (ip), vehicle: saline): 122 % of control
- T/C [11]: 99 % of control
- T/C [6]: 171 % of control
- T/C [12]: 123 % of control
- T/C (dose: 300.0 mg/kg/injection, schedule: Q04DX004 (ip), vehicle: suspension in saline): 168 % of control
- T/C [7]: 233 % of control

SMILES: O=C1c2ccccc2C(=O)c2c(NCCNCCO)ccc(NCCNCCO)c21
- T/C (dose: 1.0 mg/kg/injection, schedule: Q04DX004 (ip), vehicle: saline): 112 % of control
- T/C (dose: 2.0 mg/kg/injection, schedule: Q04DX004 (ip), vehicle: saline): 120 % of control
- T/C (dose: 5.0 mg/kg/injection, schedule: Q04DX005 (ip), vehicle: saline): 234 % of control
- T/C (dose: 8.0 mg/kg/injection, schedule: Q04DX004 (ip), vehicle: saline): 158 % of control
- T/C (dose: 10.0 mg/kg/injection, schedule: Q04DX005 (ip), vehicle: saline): 319 % of control
- T/C (dose: 16.0 mg/kg/injection, schedule: Q04DX004 (ip), vehicle: saline): 174 % of control
- T/C (dose: 20.0 mg/kg/injection, schedule: Q04DX004 (ip), vehicle: suspension in saline): 156 % of control
- T/C (dose: 40.0 mg/kg/injection, schedule: Q04DX004 (ip), vehicle: suspension in saline): 172 % of control

SMILES: CCOC(=O)Cn1nc2oc(=O)c(CCN3CCN(c4ccccc4OC)CC3)c(C)c2c1C
- T/C [4]: 103 % of control
- T/C [5]: 103 % of control
- T/C [6]: 90 % of control
- T/C [7]: 94 % of control
- T/C (dose: 800.0 mg/kg/injection, schedule: Q04DX004 (ip), vehicle: Klucel (hydroxypropylcellulose) (HPC)): 89 % of control

SMILES: CN1C(=O)OC(c2ccc(Cl)cc2)C1=O (centres undefined)
- T/C [4]: 92 % of control
- T/C [5]: 93 % of control
- T/C [6]: 94 % of control
- T/C [7]: 97 % of control

SMILES: N#Cc1c(-c2ccccc2)c(-c2ccccc2)nn(CC(=O)O)c1=O
- T/C (dose: 50.0 mg/kg/injection, schedule: Q04DX004 (ip), vehicle: distilled water + Tween-80): 102 % of control
- T/C (dose: 100.0 mg/kg/injection, schedule: Q04DX004 (ip), vehicle: distilled water + Tween-80): 102 % of control
- T/C (dose: 200.0 mg/kg/injection, schedule: Q04DX004 (ip), vehicle: distilled water + Tween-80): 97 % of control

SMILES: COc1cc2c(c(OC)c1OC)-c1cccc(=O)cc1C(NC(C)=O)CC2 (centres undefined)
- T/C (dose: 3.15 mg/kg/injection, schedule: Q04DX004 (ip), vehicle: Klucel (hydroxypropylcellulose) (HPC)): 98 % of control
- T/C (dose: 6.25 mg/kg/injection, schedule: Q04DX004 (ip), vehicle: Klucel (hydroxypropylcellulose) (HPC)): 113 % of control
- T/C (dose: 12.5 mg/kg/injection, schedule: Q04DX004 (ip), vehicle: Klucel (hydroxypropylcellulose) (HPC)): 107 % of control
- T/C [13]: 116 % of control and 117 % of control
- T/C (dose: 36.0 mg/kg/injection, schedule: Q04DX004 (ip), vehicle: Klucel (hydroxypropylcellulose) (HPC)): 114 % of control
- T/C [4]: 115 % of control
- T/C (dose: 60.0 mg/kg/injection, schedule: Q04DX004 (ip), vehicle: Klucel (hydroxypropylcellulose) (HPC)): 113 % of control
- T/C [5]: 110 % of control and 121 % of control
- T/C (dose: 166.67 mg/kg/injection, schedule: Q04DX004 (ip), vehicle: Klucel (hydroxypropylcellulose) (HPC)): 107 % of control
- T/C (dose: 277.78 mg/kg/injection, schedule: Q04DX004 (ip), vehicle: Klucel (hydroxypropylcellulose) (HPC)): 111 % of control

SMILES: CNc1nc(N(C)C)nc(N(C)C)n1
- T/C (dose: 25.0 mg/kg/injection, schedule: Q04DX004 (ip), vehicle: suspension in saline): 92 % of control and 100 % of control
- T/C [10]: 102 % of control and 109 % of control
- T/C [11]: 113 % of control and 114 % of control
- T/C [12]: 117 % of control and 120 % of control

SMILES: O=C1N[C@@H]2C(=C[C@H](O)[C@@H](O)[C@H]2O)c2cc3c(c(O)c21)OCO3
- T/C (dose: 0.38 mg/kg/injection, schedule: Q01DX009 (ip), vehicle: saline with Tween-80): 111 % of control
- T/C (dose: 0.38 mg/kg/injection, schedule: Q04DX004 (ip), vehicle: saline with Tween-80): 91 % of control
- T/C (dose: 0.75 mg/kg/injection, schedule: Q04DX004 (ip), vehicle: saline with Tween-80): 102 % of control and 110 % of control
- T/C (dose: 1.5 mg/kg/injection, schedule: Q01DX009 (ip), vehicle: saline with Tween-80): 123 % of control
- T/C (dose: 1.5 mg/kg/injection, schedule: Q04DX004 (ip), vehicle: saline with Tween-80): 96 % of control and 119 % of control
- T/C (dose: 3.0 mg/kg/injection, schedule: Q04DX004 (ip), vehicle: saline with Tween-80): 107 % of control

SMILES: CC1=CC(C)C(O)C(C)/C=C/C(O)C/C=C(/C)C(=O)CC(O)C(C)\C=C/C=C/C=C\C(=O)NC2=C(O)c3cc(C)c(O)c(c3C(=O)C2=O)C1=O (centres undefined)
- T/C (dose: 1.25 mg/kg/injection, schedule: Q04DX004 (ip), vehicle: Klucel (hydroxypropylcellulose) (HPC)): 109 % of control
- T/C (dose: 2.5 mg/kg/injection, schedule: Q04DX004 (ip), vehicle: Klucel (hydroxypropylcellulose) (HPC)): 97 % of control
- T/C (dose: 5.0 mg/kg/injection, schedule: Q04DX004 (ip), vehicle: Klucel (hydroxypropylcellulose) (HPC)): 102 % of control
- T/C (dose: 10.0 mg/kg/injection, schedule: Q04DX004 (ip), vehicle: Klucel (hydroxypropylcellulose) (HPC)): 102 % of control
- T/C [13]: 98 % of control

SMILES: O=C1C2CC3CC1CC(Cl)(C3)C2
- T/C [8]: 105 % of control
- T/C [9]: 99 % of control
- T/C [2]: 94 % of control

SMILES: c1ccc2c(c1)-c1ccccc1C1NC21 (centres undefined)
- T/C (dose: 18.75 mg/kg/injection, schedule: Q04DX004 (ip), vehicle: saline with Tween-80): 93 % of control
- T/C (dose: 37.5 mg/kg/injection, schedule: Q04DX004 (ip), vehicle: saline with Tween-80): 98 % of control
- T/C (dose: 75.0 mg/kg/injection, schedule: Q04DX004 (ip), vehicle: saline with Tween-80): 94 % of control
- T/C (dose: 150.0 mg/kg/injection, schedule: Q04DX004 (ip), vehicle: saline with Tween-80): 96 % of control
- T/C (dose: 300.0 mg/kg/injection, schedule: Q04DX004 (ip), vehicle: saline with Tween-80): 102 % of control

SMILES: CCCCCCCCCCCC1NC(=S)NC(=O)C1C#N (centres undefined)
- T/C [4]: 91 % of control

SMILES: CCN(CC)CC(=O)O[C@]1(CC)C(=O)OCc2c1cc1n(c2=O)Cc2cc3ccccc3nc2-1
- T/C [1]: 106 % of control and 110 % of control
- T/C (dose: 4.0 mg/kg/injection, schedule: Q04DX004 (ip), vehicle: water): 107 % of control and 108 % of control
- T/C (dose: 8.0 mg/kg/injection, schedule: Q04DX004 (ip), vehicle: water): 120 % of control and 124 % of control
